The values that follow come from US6855710B2, “Substituted indolines with an inhibitory effect on various kinases and complexes of CDKs” (Boehringer Ingelheim Pharma KG, priority 1998, dated 2005).

`CCOC(=O)CN(C(=O)CC)c1ccc(N/C(=C2\C(=O)Nc3ccccc32)c2ccccc2)cc1` [Example 356, (Z)-3-{1-[4-(N-ethoxycarbonylmethyl-N-propionyl-amino)-phenylamino]-1-phenyl-methylidene}-2-indolinone] registered a melting point of 229 to 232 °C.

The compound `CC(=O)NCC(=O)N(C)c1ccc(N/C(=C2\C(=O)Nc3ccc([N+](=O)[O-])cc32)c2ccccc2)cc1` [Example 140, (Z)-3-{1-[4-(N-acetylaminomethylcarbonyl-N-methyl-amino)phenylamino]-1-phenyl-methylidene}-5-nitro-2-indolinone] showed a melting point of 277 to 278 °C.

For `CN1CCN(CCc2ccc(N/C(=C3\C(=O)Nc4ccc([N+](=O)[O-])cc43)c3ccccc3)cc2)CC1` [Example 135, (Z)-3-{1-[4-(2-(4-methylpiperazino)-ethyl)-phenylamino]-1-phenyl-methylidene}-5-nitro-2-indolinone], the melting point was 238 to 240 °C.

`COc1cccc(/C(Nc2ccc(CN(C)C)cc2)=C2/C(=O)Nc3ccc([N+](=O)[O-])cc32)c1` [Example 218, (Z)-3-[1-(4-dimethylaminomethyl-phenylamino)-1-(3-methoxyphenyl)-methylidene]-5-nitro-2-indolinone] came in with a melting point of 206 to 208 °C.

For the compound `O=C(O)CCNCc1ccc(N/C(=C2\C(=O)Nc3ccc([N+](=O)[O-])cc32)c2ccccc2)cc1` [Example 242, (Z)-3-{1-[4-(2-carboxy-ethylaminomethyl)-phenylamino]-1-phenyl-methylidene}-5-nitro-2-indolinone], the melting point fell in the range of 220 to 222 °C.

Take `CCCN(CCC)Cc1ccc(N/C(=C2\C(=O)Nc3ccc([N+](=O)[O-])cc32)c2ccccc2)cc1` [Example 161, (Z)-3-[1-(4-Dipropylaminomethyl-phenylamino)-1-phenyl-methylidene]-5-nitro-2-indolinone]: the melting point fell in the range of 160 to 162 °C.

With `CN(C)CC(=O)Nc1ccc(N/C(=C2\C(=O)Nc3ccc([N+](=O)[O-])cc32)c2ccccc2)cc1` [Example 94, (Z)-3-[1-(4-dimethylaminomethylcarbonylamino-phenylamino)-1-phenyl-methylidene]-5-nitro-2-indolinone], the melting point fell in the range of 254 to 257 °C.

Compound `CN(C)C(=O)CN(C(=O)c1ccccc1)c1ccc(N/C(=C2\C(=O)Nc3ccccc32)c2ccccc2)cc1` [Example 363, (Z)-3-{1-[4-(N-dimethylaminocarbonylmethyl-N-benzoyl-amino)-phenylamino]-1-phenyl-methylidene}-2-indolinone] registered a melting point of 284 to 287 °C.

`CC(C)(C)OC(=O)N(Cc1ccccc1)Cc1ccc(N/C(=C2\C(=O)Nc3ccc([N+](=O)[O-])cc32)c2ccccc2)cc1` [Example 236, (Z)-3-{1-[4-(N-benzyl-N-tert.butoxycarbonyl-aminomethyl)-phenylamino]-1-phenyl-methylidene}-5-nitro-2-indolinone]: the melting point was 202 to 203 °C (dec.).

In turn, `CCS(=O)(=O)N(CC(=O)O)c1ccc(N/C(=C2\C(=O)Nc3ccccc32)c2ccccc2)cc1` [Example 298, (Z)-3-{1-[4-(N-carboxymethyl-N-ethylsulphonyl-amino)-phenylamino]-1-phenyl-methylidene}-2-indolinone] gave a melting point of 240 to 242 °C.

`CN(C)Cc1ccc(N/C(=C2\C(=O)Nc3ccccc32)c2ccccc2)cc1` [Example 266, (Z)-3-{1-[4-(dimethylaminomethyl)-phenylamino]-1-phenyl-methylidene}-2-indolinone] returned a melting point of 237 to 240 °C.

Take `CCS(=O)(=O)N(CC(=O)N(C)CCN(C)C)c1ccc(N/C(=C2\C(=O)Nc3ccc([N+](=O)[O-])cc32)c2ccccc2)cc1` [Example 296, (Z)-3-{1-[4-(N—((N-(2-dimethylaminoethyl)-N-methyl-amino)-carbonylmethyl)-N-ethylsulphonyl-amino)-phenylamino]-1-phenyl-methylidene}-5-nitro-2-indolinone]: the melting point worked out at 117 °C.

As for `CN(Cc1ccc(N/C(=C2\C(=O)Nc3ccc([N+](=O)[O-])cc32)c2ccccc2)cc1)c1ccccc1` [Example 234, (Z)-3-{1-[4-(N-methyl-N-phenyl-aminomethyl)-phenylamino]-1-phenyl-methylidene}-5-nitro-2-indolinone], the melting point fell in the range of 228 to 230 °C.

As for `O=C(O)Cc1ccc(N/C(=C2\C(=O)Nc3ccccc32)c2ccccc2)cc1` [Example 16, (Z)-3-[1-(4-carboxymethyl-phenylamino)-1-phenyl-methylidene]-2-indolinone], the melting point was in the range of 214 to 216 °C.

For `NCc1ccc(N/C(=C2\C(=O)Nc3ccccc32)c2ccccc2)cc1` [Example 55, (Z)-3-[1-(4-aminomethyl-phenylamino)-1-phenyl-methylidene]-2-indolinone], the melting point lay within 236 to 237 °C.

Turning to `CCN(CC)Cc1ccc(N/C(=C2\C(=O)Nc3ccc([N+](=O)[O-])cc32)c2ccccc2)cc1` [Example 159, (Z)-3-[1-(4-diethylaminomethyl-phenylamino)-1-phenyl-methylidene]-5-nitro-2-indolinone], the melting point was in the range of 173 to 174 °C.

On to `COCC(=O)Nc1ccc(N/C(=C2\C(=O)Nc3ccccc32)c2ccccc2)cc1` [Example 40, (Z)-3-[1-(4-methoxymethylcarbonylamino-phenylamino)-1-phenyl-methylidene]-2-indolinone], for which the melting point was 238 to 240 °C.

The compound `CC1(O)CCN(Cc2ccc(N/C(=C3\C(=O)Nc4ccc([N+](=O)[O-])cc43)c3ccccc3)cc2)CC1` [Example 251, (Z)-3-{1-[4-(4-hydroxy-4-methyl-piperidinomethyl)-phenylamino]-1-phenyl-methylidene}-5-nitro-2-indolinone] had a melting point of 186 to 187 °C.

Take `CN(C)CC(=O)N(C)c1ccc(N/C(=C2\C(=O)Nc3ccccc32)c2ccc(CN)cc2)cc1` [Example 430, (Z)-3-{1-[4-(N-dimethylaminomethylcarbonyl-N-methyl-amino)-phenylamino]-1-(4-aminomethyl-phenyl)-methylidene}-2-indolinone]: the melting point was 188 to 190 °C.

For the compound `CC(=O)N(CCN(C)C)c1ccc(N/C(=C2\C(=O)Nc3ccccc32)c2ccccc2)cc1` [Example 340, (Z)-3-{1-[4-(N-(2-dimethylaminoethyl)-N-acetyl-amino)-phenylamino]-1-phenyl-methylidene}-2-indolinone], the melting point was in the range of 197 to 199 °C.

`CS(=O)(=O)N(CCN1CCOCC1)c1ccc(N/C(=C2\C(=O)Nc3ccc([N+](=O)[O-])cc32)c2ccccc2)cc1` [Example 203, (Z)-3-{1-[4-(N-(2-morpholinoethyl)-N-methylsulphonyl-amino)-phenylamino]-1-phenyl-methylidene}-5-nitro-2-indolinone] displayed a melting point of 255 to 257 °C.

Turning to `CN(c1cccc(N/C(=C2\C(=O)Nc3ccccc32)c2ccccc2)c1)S(C)(=O)=O` [Example 184, (Z)-3-{1-[3-(N-methyl-N-methylsulphonyl-amino)-phenylamino]-1-phenyl-methylidene}-2-indolinone], the melting point worked out at 261 °C.

`CC(=O)NCc1ccc(/C(Nc2cccc(N(CC(N)=O)S(C)(=O)=O)c2)=C2/C(=O)Nc3ccccc32)cc1` [Example 417, (Z)-3-{1-[3-(N-aminocarbonylmethyl-N-methylsulphonyl-amino)-phenylamino]-1-(4-acetylaminomethyl-phenyl)-methylidene}-2-indolinone]: the melting point was found to be 215 °C.

`CN(C(=O)CN1CCCC1)c1ccc(N/C(=C2\C(=O)Nc3ccc([N+](=O)[O-])cc32)c2ccccc2)cc1` [Example 364, (Z)-3-{1-[4-(N-(pyrrolidin-1-ylmethylcarbonyl)-N-methyl-amino)-phenylamino]-1-phenyl-methylidene}-5-nitro-2-indolinone] came in with a melting point of 246 to 247 °C.

In the case of `Cl.NCC(=O)Nc1ccc(N/C(=C2\C(=O)Nc3ccccc32)c2ccccc2)cc1`, the melting point lay in the range of 289 to 290 °C.

As to `CCCCNC(=O)Nc1ccc(N/C(=C2\C(=O)Nc3ccccc32)c2ccccc2)cc1` [Example 46, (Z)-3-[1-(4-butylaminocarbonylamino-phenylamino)-1-phenyl-methylidene]-2-indolinone], the melting point lay in the range of 216 to 217 °C.

As for `CCC1CCN(Cc2ccc(N/C(=C3\C(=O)Nc4ccc([N+](=O)[O-])cc43)c3ccccc3)cc2)CC1` [Example 175, (Z)-3-{1-[4-(4-ethylpiperidinomethyl)-phenylamino]-1-phenyl-methylidene}-5-nitro-2-indolinone], the melting point is 225 to 227 °C.

As to `CN(C)Cc1ccc(N/C(=C2\C(=O)Nc3ccccc32)c2ccc([N+](=O)[O-])cc2)cc1` [Example 219, (Z)-3-[1-(4-dimethylaminomethyl-phenylamino)-1-(4-nitrophenyl)-methylidene]-2-indolinone], the melting point is 235 °C.

For `O=C1Nc2ccc([N+](=O)[O-])cc2/C1=C(/Nc1ccc(CNC2CC2)cc1)c1ccccc1` [Example 274, (Z)-3-{1-[4-(cyclopropylaminomethyl)-phenylamino]-1-phenyl-methylidene}-5-nitro-2-indolinone], the melting point is 220 to 221 °C (dec.).

Turning to `CCOC(=O)CN(c1cccc(N/C(=C2\C(=O)Nc3ccccc32)c2ccccc2)c1)S(C)(=O)=O` [Example 317, (Z)-3-{1-[3-(N-ethoxycarbonylmethyl-N-methylsulphonyl-amino)-phenylamino]-1-phenyl-methylidene}-2-indolinone], the melting point lay within 188 to 190 °C.

`CS(=O)(=O)N(CC(N)=O)c1cccc(N/C(=C2\C(=O)Nc3ccccc32)c2ccccc2)c1` [Example 319, (Z)-3-{1-[3-(N-aminocarbonylmethyl-N-methylsulphonyl-amino)-phenylamino]-1-phenyl-methylidene}-2-indolinone] showed a melting point of 227 to 230 °C.

`Cc1ccc(/C(Nc2ccc(CN(C)C)cc2)=C2/C(=O)Nc3ccc([N+](=O)[O-])cc32)cc1` [Example 212, (Z)-3-[1-(4-dimethylaminomethyl-phenylamino)-1-(p-tolyl)-methylidene]-5-nitro-2-indolinone] displayed a melting point of 274 to 276 °C.
